Results as given in PubChem BioAssay (NCI).
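Following 48 hours of exposure in 96-well plates, responses at five concentrations were used to interpolate endpoints linearly. TGI denotes the concentration required for complete inhibition of growth.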

Tests used:
Test in all cases: NCI anticancer screen, dose series, 48 h
A549 NSCLC = test system: A549 NSCLC
SW-620 colon = test system: SW-620 colon
CAKI-1 renal = test system: CAKI-1 renal
HCT-116 colon = test system: HCT-116 colon
RXF-631 renal = test system: RXF-631 renal
NCI-H522 lung = test system: NCI-H522 lung
NCI-H460 lung = test system: NCI-H460 lung
XF 498 CNS = test system: XF 498 CNS
HT29 colon = test system: HT29 colon
KM12 colon = test system: KM12 colon
UO-31 renal = test system: UO-31 renal
DMS 114 small cell lung = test system: DMS 114 small cell lung
MALME-3M melanoma = test system: MALME-3M melanoma
SNB-19 CNS = test system: SNB-19 CNS
CCRF-CEM leukemia = test system: CCRF-CEM leukemia
OVCAR-4 ovarian = test system: OVCAR-4 ovarian
SF-268 CNS = test system: SF-268 CNS
NCI-H23 lung = test system: NCI-H23 lung
UACC-257 melanoma = test system: UACC-257 melanoma
SK-OV-3 ovarian = test system: SK-OV-3 ovarian
HCT-15 colon = test system: HCT-15 colon
HOP-62 NSCLC = test system: HOP-62 NSCLC
786-0 renal = test system: 786-0 renal
UACC-62 melanoma = test system: UACC-62 melanoma
MOLT-4 leukemia = test system: MOLT-4 leukemia
K-562 leukemia = test system: K-562 leukemia
ACHN renal = test system: ACHN renal
IGROV1 ovarian = test system: IGROV1 ovarian
DLD-1 colon = test system: DLD-1 colon
SNB-75 CNS = test system: SNB-75 CNS
COLO 205 colon = test system: COLO 205 colon
KM20L2 colon = test system: KM20L2 colon
A498 renal = test system: A498 renal
OVCAR-8 ovarian = test system: OVCAR-8 ovarian
OVCAR-5 ovarian = test system: OVCAR-5 ovarian
EKVX NSCLC = test system: EKVX NSCLC
SK-MEL-2 melanoma = test system: SK-MEL-2 melanoma
SF-539 CNS = test system: SF-539 CNS
HCC-2998 colon = test system: HCC-2998 colon
NCI-H226 lung = test system: NCI-H226 lung
TK-10 renal = test system: TK-10 renal
HOP-18 NSCLC = test system: HOP-18 NSCLC
SN12C renal = test system: SN12C renal
OVCAR-3 ovarian = test system: OVCAR-3 ovarian
SF-295 CNS = test system: SF-295 CNS
M14 melanoma = test system: M14 melanoma
U251 CNS = test system: U251 CNS
SK-MEL-5 melanoma = test system: SK-MEL-5 melanoma
RXF 393 renal = test system: RXF 393 renal
DMS 273 small cell lung = test system: DMS 273 small cell lung
RPMI-8226 leukemia = test system: RPMI-8226 leukemia
LXFL 529 NSCLC = test system: LXFL 529 NSCLC
SNB-78 CNS = test system: SNB-78 CNS
M19-MEL melanoma = test system: M19-MEL melanoma
HL-60(TB) leukemia = test system: HL-60(TB) leukemia
LOX IMVI melanoma = test system: LOX IMVI melanoma
SK-MEL-28 melanoma = test system: SK-MEL-28 melanoma

Cn1c(=O)nc2n(-c3ccc(Br)cc3)c3ccccc3nc-2c1=O
TGI (A549 NSCLC): 15.1 µM
TGI (SW-620 colon): 6.57 µM
TGI (CAKI-1 renal): 33 µM
TGI (HCT-116 colon): 16.3 µM
TGI (RXF-631 renal): 29.8 µM
TGI (NCI-H522 lung): 18.4 µM
TGI (NCI-H460 lung): 11.9 µM
TGI (XF 498 CNS): 25 µM
TGI (HT29 colon): 7.44 µM
TGI (KM12 colon): 36.8 µM
TGI (UO-31 renal): 37.9 µM
TGI (DMS 114 small cell lung): 4.39 µM
TGI (MALME-3M melanoma): 12.7 µM
TGI (SNB-19 CNS): 9.3 µM
TGI (CCRF-CEM leukemia): 19.9 µM
TGI (OVCAR-4 ovarian): 14.6 µM
TGI (SF-268 CNS): 31 µM
TGI (NCI-H23 lung): 4.2 µM
TGI (UACC-257 melanoma): 6.79 µM
TGI (SK-OV-3 ovarian): > 100 µM
TGI (HCT-15 colon): 14.7 µM
TGI (HOP-62 NSCLC): 64.8 µM
TGI (786-0 renal): 22.3 µM
TGI (UACC-62 melanoma): 3.01 µM
TGI (MOLT-4 leukemia): 28.7 µM
TGI (K-562 leukemia): 24 µM
TGI (ACHN renal): 13.2 µM
TGI (IGROV1 ovarian): 28 µM
TGI (DLD-1 colon): 36.3 µM
TGI (SNB-75 CNS): 19.4 µM
TGI (COLO 205 colon): 11.1 µM
TGI (KM20L2 colon): 8.74 µM
TGI (A498 renal): 26.9 µM
TGI (OVCAR-8 ovarian): 18.3 µM
TGI (OVCAR-5 ovarian): 26.4 µM
TGI (EKVX NSCLC): 7.3 µM
TGI (SK-MEL-2 melanoma): 28.5 µM
TGI (SF-539 CNS): 19.6 µM
TGI (HCC-2998 colon): 10.8 µM
TGI (NCI-H226 lung): 28.5 µM
TGI (TK-10 renal): 32.8 µM
TGI (HOP-18 NSCLC): 18.8 µM
TGI (SN12C renal): 17.9 µM
TGI (OVCAR-3 ovarian): 7.6 µM
TGI (SF-295 CNS): 17 µM
TGI (M14 melanoma): 15.5 µM
TGI (U251 CNS): 19.9 µM
TGI (SK-MEL-5 melanoma): 4.12 µM
TGI (RXF 393 renal): 29 µM
TGI (DMS 273 small cell lung): 14 µM
TGI (RPMI-8226 leukemia): 28.8 µM
TGI (LXFL 529 NSCLC): 25.4 µM
TGI (SNB-78 CNS): 35.1 µM
TGI (M19-MEL melanoma): 2.93 µM

O=[N+]([O-])c1ccc(C[P+]2(c3ccccc3)CCCCC2)cc1 (tested in a mixture with another compound)
TGI (A549 NSCLC): > 100 µM
TGI (SW-620 colon): > 100 µM
TGI (CAKI-1 renal): > 100 µM
TGI (RXF-631 renal): > 100 µM
TGI (NCI-H460 lung): > 100 µM
TGI (XF 498 CNS): > 100 µM
TGI (KM12 colon): > 100 µM
TGI (UO-31 renal): > 100 µM
TGI (DMS 114 small cell lung): > 100 µM
TGI (MALME-3M melanoma): > 100 µM
TGI (SNB-19 CNS): > 100 µM
TGI (CCRF-CEM leukemia): > 100 µM
TGI (OVCAR-4 ovarian): > 100 µM
TGI (SF-268 CNS): > 100 µM
TGI (HL-60(TB) leukemia): > 100 µM
TGI (NCI-H23 lung): > 100 µM
TGI (UACC-257 melanoma): > 100 µM
TGI (SK-OV-3 ovarian): > 100 µM
TGI (HCT-15 colon): > 100 µM
TGI (HOP-62 NSCLC): > 100 µM
TGI (786-0 renal): > 100 µM
TGI (UACC-62 melanoma): > 100 µM
TGI (MOLT-4 leukemia): > 100 µM
TGI (LOX IMVI melanoma): > 100 µM
TGI (K-562 leukemia): > 100 µM
TGI (ACHN renal): > 100 µM
TGI (IGROV1 ovarian): > 100 µM
TGI (DLD-1 colon): > 100 µM
TGI (SNB-75 CNS): > 100 µM
TGI (COLO 205 colon): > 100 µM
TGI (A498 renal): > 100 µM
TGI (OVCAR-8 ovarian): > 100 µM
TGI (OVCAR-5 ovarian): > 100 µM
TGI (EKVX NSCLC): > 100 µM
TGI (SK-MEL-2 melanoma): > 100 µM
TGI (SF-539 CNS): > 100 µM
TGI (HCC-2998 colon): > 100 µM
TGI (TK-10 renal): > 100 µM
TGI (HOP-18 NSCLC): 65.8 µM
TGI (SK-MEL-28 melanoma): > 100 µM
TGI (SN12C renal): > 100 µM
TGI (OVCAR-3 ovarian): > 100 µM
TGI (SF-295 CNS): > 100 µM
TGI (M14 melanoma): > 100 µM
TGI (U251 CNS): > 100 µM
TGI (SK-MEL-5 melanoma): 84.2 µM
TGI (RXF 393 renal): > 100 µM
TGI (DMS 273 small cell lung): > 100 µM
TGI (RPMI-8226 leukemia): > 100 µM
TGI (LXFL 529 NSCLC): > 100 µM
